Laboratory results reported in patent US20070060617A1, “2-Methoxy-5(5-trifluoromethyl-tetrazol-1-yl-benzyl)-2s-phenyl-piperdin-3s-yl)-amine for the treatment of social phobia” (priority 2004, published 2007).
Where a name gives a salt, the structure may show the parent alone.

Tested on: patients suffering from social phobia (Social Anxiety Disorder)
Test: double-blind, placebo-controlled study in patients suffering from social phobia (self-report questionnaires, state anxiety measures, verbal performance, PET)
Format: in vivo, human
Conditions: NK1-antagonist group, daily oral dose of 5 mg, administered four weeks
Source text: The first study was a double-blind, placebo-controlled study of the effect of [2-methoxy-5-(5-trifluoromethyl-tetrazol-1-yl-benzyl)]-(2-phenyl-piperidin-3-yl)-amine dihydrochloride in patients suffering from social phobia (otherwise known as Social Anxiety Disorder). Thirty six patients aged between 19 and 48 meeting the DSM-IV criteria for social phobia (as set out in Diagnostic and Statistical Manual of Mental Disorders, 4th Edition, published by the American Psychiatric Association) were selected. […] The effect of [2-methoxy-5(5-trifluoromethyl-tetrazol-1-yl-benzyl)]-(2-phenyl-piperidin-3-yl)-amine dihydrochloride on anxiety symptoms and brain activity in patients diagnosed with social phobia was evaluated using self-report questionnaires (the Social Phobia Scale (SPS), the Social Interaction Anxiety Scale (SIAS), the Personal Report on Confidence as a Speaker (PRCS), the Social Phobia Screening Questionnaire (SPSQ), the Sheehan Disability Inventory (SDI), self-report versions of the Liebowitz Social Anxiety Scale (LSAS-SR) and the Global Assessment of Functioning (GAF) scale), state anxiety measures (the Speilberger state-anxiety inventory (STAI-S), subjective ratings of fear and distress on 0-100 (min-max) scales and heart rate), verbal performance (comparing the number of spoken syllables during the first ten seconds of each videotaped speech) and PET assessments.

COc1ccc(-n2nnnc2C(F)(F)F)cc1CN[C@H]1CCCN[C@H]1c1ccccc1 [[2-methoxy-5-(5-trifluoromethyl-tetrazol-1-yl-benzyl)]-(2-phenyl-piperidin-3-yl)-amine dihydrochloride]
effect compared with placebo: generally superior to placebo | improvement of patients with social phobia after short-term treatment: significantly improved
